Data set [1] can be described thus: Experimental lipophilicity, shake-flask n-octanol/water. The format is physicochemical. Conditions: n-octanol/water (MOPS buffer); n-octanol/50 mM MOPS buffer pH 7.4, 25±1 °C; mean±SD of three; read-out: Log D oct,7.4.
Method: Chosen buffer was 50 mM zwitterionic MOPS (3‐morpholinopropanesulfonic acid), pH 7.4 to avoid ionic couple partitioning, with ionic strength adjusted to 0.15 M by KCl addition. Compounds, after partitioning overnight, and dilution of both phases with methanol, were dosed in the HPLC‐UV system, as detailed below. Reported log D oct,7.4 values are the mean of three measurements±standard deviation.
HPLC columns were a RP‐C18 Supelco Discovery (Supelco, Bellefonte, PA, USA), 5 μm, 150×4.6 mm i.d. for all compounds except 13, and a Phenomenex Gemini, 5 μm, 150×4.6 mm i.d. for compound 13 (Phenomenex). Elution conditions were optimized for each compound at a flow rate of 1 mL min^−1 employing mobile phases consisting of water and acetonitrile at different percentages, while UV detection was set at λ = 254 nm. For compound 13, the mobile phase consisted of a 10 mM ammonium acetate buffer pH 7.0 and methanol and the UV detection was set at λ = 281 nm.
Data set [2] can be described thus: Metabolic stability in rat liver microsomes. The format is in vitro ADME. To be noted: rat liver microsomes 1 mg protein/mL, 5 μM compound, mean±SD. (In general: Liver microsomes are vesicles of endoplasmic reticulum, rich in cytochrome P450 enzymes.)
Method: (§1) Each compound (final concentration: 5 μM) was incubated in the presence of rat or human liver microsomes (final concentration: 1 mg protein/mL) and of a NADPH‐regenerating system (final concentrations: 2 mM NADP^+, 10 mM glucose‐6‐phosphate, 0.4 U mL^−1 glucose‐6‐phosphate dehydrogenase, 5 mM MgCl2) in a 10 mM Phosphate Buffered Saline (PBS) solution, pH 7.4, at 37 °C. Compound was added after a 10 min pre‐incubation at 37 °C and. at stated time points, depending on compound kinetics, sample aliquots were withdrawn, metabolic reaction was quenched by acetonitrile addition (1 : 2), and after a centrifugation step (9000 g, 10 min, 4 °C) the supernatant was analyzed by HPLC‐UV‐VIS.
(§2) Apparent half‐lives (t1/2 in min) for the metabolic clearance of compounds were calculated from the pseudo first‐order rate constants (k) obtained by linear regression of the log chromatographic peak area versus time plots and are reported as means of three experiments±standard deviation. Intrinsic clearance (CLi) values of the compounds were calculated using the following equation: CLi (μL×min^−1×mg protein^−1)=k×V where V (μL×mg protein^−1)=incubation volume/mg protein added.
(§3) Pooled rat and human liver microsomes (20 mg/mL) were supplied by BD Biosciences (BD Biosciences, Woburn, MA, USA). Acetonitrile and methanol were HPLC grade and were supplied by Sigma‐Aldrich (Sigma‐Aldrich srl, Milan, Italy). Water was freshly bidistilled before use. All other reagents were purchased in the highest purity available.
(§4) PeakSimple 2.83 software was employed for data acquisition and HPLC peak integration. HPLC columns were a RP‐C18 Supelco Discovery (Supelco, Bellefonte, PA, USA), 5 μm, 150×4.6 mm i.d. for all compounds except 13, and a Phenomenex Gemini, 5 μm, 150×4.6 mm i.d. for compound 13 (Phenomenex). Elution conditions were optimized for each compound at a flow rate of 1 mL min^−1 employing mobile phases consisting of water and acetonitrile at different percentages, while UV detection was set at λ = 254 nm. For compound 13, the mobile phase consisted of a 10 mM ammonium acetate buffer pH 7.0 and methanol and the UV detection was set at λ = 281 nm.
The nature of data set [3]: Thermodynamic solubility, shake flask method. The format is physicochemical. To be noted: thermodynamic from solid, room temperature overnight, mean±SD, triplicate.
Method: Thermodynamic solubility values were measured in two different buffers (pH 1.0; pH 7.4) by the shake flask method.[65] 1 mg of each compound was placed in 1 mL of appropriate buffer and shaken at room temperature overnight. The resulting suspension was centrifuged (10 min, 10000 g, 20 °C) and the supernatant analyzed by HPLC‐UV. Solubility values were interpolated from calibration curves prepared from concentrated DMSO stock solutions of each compound. Reported solubility values are the mean of three measurements±standard deviation.
It consisted of a LC‐10ADvp solvent delivery module, a 20 μL Rheodyne sample injector (Rheodyne LLC, Rohnert Park, CA, USA) and a SPD‐10Avp UV‐VIS detector. PeakSimple 2.83 software was employed for data acquisition and HPLC peak integration. […] Elution conditions were optimized for each compound at a flow rate of 1 mL min^−1 employing mobile phases consisting of water and acetonitrile at different percentages, while UV detection was set at λ = 254 nm.
Data set [4] in a line: Metabolic stability in human liver microsomes. In kind it is in vitro ADME. Conditions: human liver microsomes 1 mg protein/mL, 5 μM compound, mean±SD.
Method: as §1, §2, §3, §4
For another data set, the target named is human MT1 receptors (Homo sapiens, UniProt P48039). As to the kind of experiment: Radioligand binding, 2-[125I]iodomelatonin competition at MT1. Conditions: cloned human MT1 in CHO cells; from IC50 by Cheng-Prusoff; mean±SD of three determinations; read-out: MT1 K i.
human MT1 receptors, sequence (P48039 whole entry): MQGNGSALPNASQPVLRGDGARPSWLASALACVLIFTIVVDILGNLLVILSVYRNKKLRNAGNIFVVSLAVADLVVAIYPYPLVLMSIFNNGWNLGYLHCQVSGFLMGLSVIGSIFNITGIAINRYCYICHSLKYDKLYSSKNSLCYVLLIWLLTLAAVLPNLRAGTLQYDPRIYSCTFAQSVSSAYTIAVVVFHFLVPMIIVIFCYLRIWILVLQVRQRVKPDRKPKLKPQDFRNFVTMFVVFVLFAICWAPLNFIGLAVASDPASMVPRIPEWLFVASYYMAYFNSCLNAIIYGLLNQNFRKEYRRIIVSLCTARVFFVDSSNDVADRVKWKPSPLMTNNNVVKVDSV
The target in another data set is T1, human MT2 receptors (Homo sapiens, UniProt P49286).
T1 sequence (P49286 1-362): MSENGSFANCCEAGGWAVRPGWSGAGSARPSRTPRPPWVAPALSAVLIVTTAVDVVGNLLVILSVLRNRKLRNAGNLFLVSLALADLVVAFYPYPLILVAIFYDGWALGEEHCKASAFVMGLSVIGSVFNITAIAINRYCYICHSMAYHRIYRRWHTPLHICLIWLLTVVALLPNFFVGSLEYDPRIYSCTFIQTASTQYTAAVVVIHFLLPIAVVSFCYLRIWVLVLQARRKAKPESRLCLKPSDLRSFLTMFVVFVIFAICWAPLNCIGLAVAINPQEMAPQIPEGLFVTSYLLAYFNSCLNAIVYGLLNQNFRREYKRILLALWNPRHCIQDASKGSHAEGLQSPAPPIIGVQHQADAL
As to the kind of experiment: Radioligand binding, 2-[125I]iodomelatonin competition at MT2. To be noted: cloned human MT2 in CHO cells; from IC50 by Cheng-Prusoff; mean±SD of three determinations; read-out: MT2 K i.

Molecules are shown by their SMILES. ≈ marks a conversion by molar mass, not a printed value. Read-outs that look alike come from different tables or passages of the source.

Method for human MT1 receptors: (§5) The in vitro pharmacology experiments were conducted at Cerep (Celle‐Lévescault, France) following radioligand binding and cellular functional assays developed elsewhere.[60, 61, 62]
(§6) After incubation, the % of radioligand binding inhibition was determined via a scintillation counting method. The radioligand binding experiments were performed in triplicate. IC50 values were determined by nonlinear regression analysis of the competition curves using Hill equation curve fitting. The pK i values were calculated from the IC50 values in accordance with the Cheng‐Prusoff equation.[28]
Method for human MT2 receptors: as §5, §6

The solubility is the concentration that dissolves in the medium under given conditions. The melting point is the temperature, or range, at which the solid turns liquid. As to `COc1cccc(N(CCNC(C)=O)c2ccsc2)c1` [Compound 11, N ‐{2‐[(3‐Methoxyphenyl)(thiophen‐3‐yl)amino]ethyl}acetamide], the melting point fell in the range of 76 to 77 °C. In addition, the logD in data set [1] stood at 2.74 ± 0.01. Moreover, the “CLi Rat LM (intrinsic clearance)” value in data set [2] (37 °C) is given as 175.4±22.3 μL min^−1 mg prot^−1. Besides, the half-life at 5 μM in data set [2] (NADPH-regenerating system, pH 7.4, 37 °C, read-out: t 1/2 Rat LM) turned out to be 4 ± 0.5 min. Besides, in data set [3] (buffer pH 1.0, simulated gastric fluid, pH 1.0 buffer, read-out: Solubility pH 1.0), the solubility was 162 ± 4.4 µg/mL (≈ 556 µM). Besides, the solubility in data set [3] (buffer pH 7.4, aqueous buffer, pH 7.4 buffer, read-out: Solubility pH 7.4) was found to be 92.5 ± 3.5 µg/mL (≈ 319 µM). Also, in data set [4] (37 °C), the “CLi Human LM (intrinsic clearance)” value is 17.5±2.4 μL min^−1 mg prot^−1. In addition, the half-life at 5 μM in data set [4] (NADPH-regenerating system, pH 7.4, 37 °C, read-out: t 1/2 Human LM) stood at 40.1 ± 5.3 min. Besides, the Ki at human MT1 receptors turned out to be 700 ± 100 pM. Besides, on human MT2 receptors, the Ki is 70 ± 20 pM.
